Experimental data: patent US7196119B2, “Development of new selective estrogen receptor modulators” (The Regents of the University of California, priority 2003, dated 2007)
Entries after “also recorded” stand apart in the source; their conditions may differ. Where two headings read alike, the source gives them in different places. One block for each molecule: values may come before it.

Key:
[1] = target: T1, full length (ER)α (Homo sapiens, UniProt P03372); test: Estrogen receptor binding assay (spin column, [3H]estradiol competition)
T1 construct: purchased Pan Vera Corp, Madison, Wis., USA
T1 sequence (P03372 1-595): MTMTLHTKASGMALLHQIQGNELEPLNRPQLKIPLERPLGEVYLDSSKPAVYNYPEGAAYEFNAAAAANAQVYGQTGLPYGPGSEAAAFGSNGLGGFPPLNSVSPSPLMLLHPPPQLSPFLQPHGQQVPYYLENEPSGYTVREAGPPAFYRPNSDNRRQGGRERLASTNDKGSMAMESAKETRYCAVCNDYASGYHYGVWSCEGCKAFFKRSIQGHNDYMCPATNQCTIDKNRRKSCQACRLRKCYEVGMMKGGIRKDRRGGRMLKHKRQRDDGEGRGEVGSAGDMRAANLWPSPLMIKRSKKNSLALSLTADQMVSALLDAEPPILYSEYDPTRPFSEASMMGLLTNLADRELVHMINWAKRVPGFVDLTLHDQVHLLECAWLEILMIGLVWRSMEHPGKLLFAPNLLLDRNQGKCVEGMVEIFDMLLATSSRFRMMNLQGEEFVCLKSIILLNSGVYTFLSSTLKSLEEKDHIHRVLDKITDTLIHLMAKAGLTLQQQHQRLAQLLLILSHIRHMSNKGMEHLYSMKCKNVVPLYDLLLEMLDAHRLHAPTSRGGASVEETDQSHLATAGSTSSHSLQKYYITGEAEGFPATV

[2] = target: T2, full length (ER)β (Homo sapiens, UniProt Q92731); test: as above
T2 construct: to full length (ER)α or (ER)β*; purchased Pan Vera Corp, Madison, Wis., USA

[3] = tested on: GABAB receptor-mediated outward current in hypothalamic arcuate neurons (membrane associated estrogen receptor); test: Whole-cell patch voltage clamp: attenuation of the baclofen-induced GABAB response (GIRK outward current) in hypothalamic slices; format: cell-based, guinea pig
[4] = tested on: uteri; test: Uterotropic action (uterine size/weight) in ovariectomized mice; format: in vivo, C57BL/6 mice
Description: Wild-type C57BL/6 mice in these studies were obtained from Jackson laboratories. All animals were maintained under controlled temperature (25° C.) and photoperiod conditions (14-h light, 10-h dark; lights on between 0700 and 2100) with food and water ad libitum. Adult mice were ovariectomized under isoflurane anesthesia, and allowed to recover for 1 week. […] The uteri were collected, weighed and fixed in 4% paraformaldehyde for later histological analysis (data not shown).

T2 sequence (Q92731 whole entry): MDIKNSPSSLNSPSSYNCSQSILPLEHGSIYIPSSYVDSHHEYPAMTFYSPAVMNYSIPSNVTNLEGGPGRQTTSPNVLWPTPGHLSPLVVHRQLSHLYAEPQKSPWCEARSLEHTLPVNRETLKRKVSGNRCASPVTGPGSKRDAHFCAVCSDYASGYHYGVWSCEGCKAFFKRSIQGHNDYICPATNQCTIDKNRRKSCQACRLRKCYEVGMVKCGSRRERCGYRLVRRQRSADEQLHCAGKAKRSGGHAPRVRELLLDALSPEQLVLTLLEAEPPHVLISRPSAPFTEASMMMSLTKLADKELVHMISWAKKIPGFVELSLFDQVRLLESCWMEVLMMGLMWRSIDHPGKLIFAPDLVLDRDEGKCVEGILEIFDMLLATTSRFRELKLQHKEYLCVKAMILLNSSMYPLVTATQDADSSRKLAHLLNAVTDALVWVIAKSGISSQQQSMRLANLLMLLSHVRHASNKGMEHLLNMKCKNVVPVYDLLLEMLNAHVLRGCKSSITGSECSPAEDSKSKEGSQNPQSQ

Molecule: 4-hydroxytamoxifen
Relative binding affinity (ER)α [1]: 36%
Relative binding affinity (ER)β [2]: 43%
block of the baclofen response [3]: 25%

Molecule: C[C@]12CC[C@@H]3c4ccc(O)cc4CC[C@H]3[C@@H]1CC[C@H]2O [17α-estradiol]
effect on the baclofen (GABAB) response [3]: no effect

Molecule: C[C@]12CC[C@@H]3c4ccc(O)cc4CC[C@H]3[C@@H]1CC[C@@H]2O [17β-estradiol]
R2/R1 (second over first baclofen response) [3]: 58.6±3.4%
decrease in the response to a second application of baclofen [3]: 41%
effect on the baclofen (GABAB) response [3]: no effect

Molecule: CN(C)CCCn1cc(C2=C(c3c[nH]c4ccccc34)C(=O)NC2=O)c2ccccc21.Cl [BIS, bisindolylmaleimide I hydrochloride]
effect on the 17β-estradiol-induced suppression of the GABAB response [3]: nearly eliminated the effects of 17β-estradiol

Relative binding affinity (ER)α ([1]; percentage of the potency of 17β-estradiol (IC50 estradiol / IC50 ligand x 100)): 4.3 × 10^−6%
Molecule: CC/C(=C(\C(=O)Nc1ccc(OCCN(C)C)cc1)c1ccc(O)cc1)c1ccccc1 [Compound 8, (E,Z)-2-(4-hydroxyphenyl)-3-phenylpent-2-enoic acid [4-(2-dimethylaminoethoxy)-phenyl]amide]
binding affinity for nuclear (ER)α compared to that of 17β-estradiol ([1]; fold reduction versus 17β-estradiol): approximately one million-fold reduced binding affinity
effect on the baclofen (GABAB) response ([3]; 10 nM, applied alone): as efficacious as 100 nM 17β-estradiol; also recorded: stronger activator of this rapid 17β-estradiol response than 17β-estradiol
effect on the baclofen (GABAB) response ([3]; 10 nM, applied alone, listed as compound 8): inhibited the baclofen response
uterotropic actions ([4]; 2 or 5 μg daily for 2 days): no uterotropic actions

Molecule: Cl.Cl.O=S(=O)(NCCNC/C=C/c1ccc(Br)cc1)c1cccc2cnccc12 [Compound H89]
effect on the 17β-estradiol-induced suppression of the GABAB response ([3]; 10 μM, with 17β-estradiol): blocked

Molecule: N#CC(=C(/N)Sc1ccccc1N)/C(C#N)=C(/N)Sc1ccccc1N [Compound U0126]
effect on the 17β-estradiol-induced suppression of the GABAB response ([3]; 5 μM, with 17β-estradiol): did not affect 17β-estradiol inhibition of baclofen responses

Molecule: COc1ccc2c(c1)CC[C@@H]1[C@@H]2CC[C@]2(C)[C@@H](NCCCCCCN3C(=O)C=CC3=O)CC[C@@H]12 [Compound U73122]
effect on the 17β-estradiol-induced suppression of the GABAB response ([3]; 10 μM, with 17β-estradiol): blocked

Molecule: COc1ccc2c(c1)CC[C@@H]1[C@@H]2CC[C@]2(C)[C@@H](NCCCCCCN3C(=O)CCC3=O)CC[C@@H]12 [Compound U73343]
effect on the 17β-estradiol-induced suppression of the GABAB response ([3]; 10 μM, with 17β-estradiol): no effect

Molecule: CC/C(=C(\c1ccccc1)c1ccc(/C=C/C(=O)O)cc1)c1ccccc1 [GW-5638]
effect on the baclofen (GABAB) response ([3]; 1 μM, applied alone): significantly more efficacious than 17β-estradiol

Molecule: Cn1c2ccccc2c2c3c(c4c5ccccc5n(CCC#N)c4c21)CNC3=O [Gö6976]
effect on the 17β-estradiol-induced suppression of the GABAB response ([3]; test concentration not given, with 17β-estradiol): without effect

Molecule: C[C@]12CC[C@@H]3c4ccc(O)cc4C[C@@H](CCCCCCCCC[S+]([O-])CCCC(F)(F)C(F)(F)F)[C@H]3[C@@H]1CC[C@@H]2O (stereo partly shown) [ICI 182, 780]
effect on the baclofen (GABAB) response ([3]; 1 μM, applied alone): no effect
effect on the 17β-estradiol-induced suppression of the GABAB response ([3]; 1 μM, with 17β-estradiol): blocked

Molecule: COc1cccc(-c2cc(=O)c3ccccc3o2)c1N [PD98059]
effect on the 17β-estradiol-induced suppression of the GABAB response ([3]; 10 μM, with 17β-estradiol): did not affect 17β-estradiol inhibition of baclofen responses
R2/R1 (second over first baclofen response) ([3]; PD98059 (10 μM, in the pipette) + 17β-estradiol, baclofen 5 μM): 66.1±11.8%

Molecule: O=C(c1ccc(OCCN2CCCCC2)cc1)c1c(-c2ccc(O)cc2)sc2cc(O)ccc12 [Raloxifene, raloxifene]
effect on the baclofen (GABAB) response [3]: completely mimicked the actions of 17β-estradiol

Molecule: Nc1ncnc2c1ncn2[C@@H]1O[C@@H]2COP(O)(=S)O[C@H]2[C@H]1O (stereo partly shown) [Rp-cAMP]
effect on the 17β-estradiol-induced suppression of the GABAB response ([3]; 200 μM, dialysis, with 17β-estradiol): abolished

Molecule: CC/C(=C(\c1ccccc1)c1ccc(OCCN(C)C)cc1)c1ccccc1 [Tamoxifen, tamoxifen]
R2/R1 (second over first baclofen response) [3]: 60.4±6.6%
effect on the 17β-estradiol-induced suppression of the GABAB response [3]: did not attenuate the effects of 17β-estradiol
effect on the baclofen (GABAB) response [3]: inactive

Molecule: C[C@]12CC[C@@H]3c4ccc(OC(=O)c5ccccc5)cc4CC[C@H]3[C@@H]1CC[C@@H]2O [estradiol benzoate]
uterine size ([4]; 1 μg daily for 2 days, compared with oil vehicle): noticeable increase in uterine size

Molecule: CC(=O)c1c(O)c(C)c(O)c(Cc2c(O)c3c(c(C(=O)/C=C/c4ccccc4)c2O)OC(C)(C)C=C3)c1O [rottlerin]
effect on the 17β-estradiol-induced suppression of the GABAB response [3]: completely blocked

Molecule: Ac-LGLNLKEYNLV-OH [Gq peptide]
effect on the 17β-estradiol-induced suppression of the GABAB response [3]: significantly blocked
